One data set has as its system CAL-62. Briefly: Antiproliferative activity against human CAL-62 cells harboring KRAS G12R mutant assessed as inhibition of cell proliferation incubated for 7 days by CellTiterGlo-3D proliferation assay. The format is functional, cell-based. Conditions: time 7.0 day. On the technique in general: In ATP-based viability assays light output follows the ATP content of the culture.

Data set [1] addresses T1, Son of sevenless homolog 1 (Homo sapiens, UniProt Q07889).
T1 sequence (Q07889 whole entry): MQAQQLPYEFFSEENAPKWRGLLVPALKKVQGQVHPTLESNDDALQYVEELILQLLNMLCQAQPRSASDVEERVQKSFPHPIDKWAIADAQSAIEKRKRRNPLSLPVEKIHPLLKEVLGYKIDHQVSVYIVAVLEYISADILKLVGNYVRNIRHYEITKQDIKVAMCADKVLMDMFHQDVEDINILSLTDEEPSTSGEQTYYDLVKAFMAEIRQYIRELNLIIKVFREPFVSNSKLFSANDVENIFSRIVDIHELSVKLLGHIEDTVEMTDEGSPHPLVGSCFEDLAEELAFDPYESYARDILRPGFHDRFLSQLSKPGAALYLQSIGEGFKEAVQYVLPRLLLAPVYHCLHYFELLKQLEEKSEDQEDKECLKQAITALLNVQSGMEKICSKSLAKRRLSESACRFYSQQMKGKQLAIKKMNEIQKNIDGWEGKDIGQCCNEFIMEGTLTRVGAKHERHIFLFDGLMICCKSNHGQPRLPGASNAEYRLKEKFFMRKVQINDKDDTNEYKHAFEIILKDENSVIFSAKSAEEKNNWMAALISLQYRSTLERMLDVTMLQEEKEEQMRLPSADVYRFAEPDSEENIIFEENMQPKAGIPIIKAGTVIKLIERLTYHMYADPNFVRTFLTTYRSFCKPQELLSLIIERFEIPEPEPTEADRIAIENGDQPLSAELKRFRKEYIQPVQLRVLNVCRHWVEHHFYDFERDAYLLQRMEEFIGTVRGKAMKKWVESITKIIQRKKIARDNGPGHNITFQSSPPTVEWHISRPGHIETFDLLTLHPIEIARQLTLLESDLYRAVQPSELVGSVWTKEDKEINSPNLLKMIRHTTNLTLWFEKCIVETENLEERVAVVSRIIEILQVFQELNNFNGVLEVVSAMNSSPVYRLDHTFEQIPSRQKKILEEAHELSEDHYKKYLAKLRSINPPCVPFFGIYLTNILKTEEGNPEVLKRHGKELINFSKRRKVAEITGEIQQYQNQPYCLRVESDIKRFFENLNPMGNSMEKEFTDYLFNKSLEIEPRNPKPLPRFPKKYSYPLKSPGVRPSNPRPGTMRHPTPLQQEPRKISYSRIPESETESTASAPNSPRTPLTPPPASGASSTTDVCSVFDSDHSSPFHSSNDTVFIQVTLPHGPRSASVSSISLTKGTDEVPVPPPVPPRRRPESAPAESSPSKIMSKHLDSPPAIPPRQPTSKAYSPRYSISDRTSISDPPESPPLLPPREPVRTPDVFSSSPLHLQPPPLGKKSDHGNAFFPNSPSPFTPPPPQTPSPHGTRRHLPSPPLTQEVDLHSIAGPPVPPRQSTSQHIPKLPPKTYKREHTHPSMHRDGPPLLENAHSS
Briefly: Binding affinity to GST-tagged human SOS1 (564 to 1049 residues) expressed in Escherichia coli BL21 (DE3) cells assessed as binary complex formation by measuring dissociation constant incubated for 15 mins by fluorescence polarization-based displacement assay. A general note: Polarisation of emitted light reports the rotation of a fluorescent probe.

The target of data set [2] is T2, von Hippel-Lindau disease tumor suppressor/Son of sevenless homolog 1 (Homo sapiens) (UniProt Q07889+P40337). The experiment in a line: PROTAC activity at VHL/SOS1 in human NCI-H358 cells harboring KRAS G12C mutant assessed as induction of SOS1 degradation at 1 uM preincubated with VHL ligand for 4 hrs followed by compound treatment and measured after 24 hrs by Immunoblot analysis. The format is cell-based. For orientation: A western blot detects proteins with antibodies after separation by electrophoresis.

In data set [3] the target is von Hippel-Lindau disease tumor suppressor/Son of sevenless homolog 1 (Homo sapiens, UniProt P40337+Q07889, G12C). Briefly: PROTAC activity at VHL/SOS1 in human MIA PaCa-2 cells harboring KRAS G12C mutant assessed as induction of SOS1 degradation incubated for 24 hrs by Immunoblot analysis. The settings on record: pooled result: one value given for 16 cell lines, strains, targets or settings. In kind it is cell-based.

For data set [4], the target named is T2, von Hippel-Lindau disease tumor suppressor/Son of sevenless homolog 1 (Homo sapiens). Briefly: PROTAC activity at VHL/SOS1 in human MIA PaCa-2 cells harboring KRAS G12C mutant assessed as induction of SOS1 degradation by measuring maximal efficacy at 1 to 2000 nM incubated for 24 hrs by Immunoblot analysis relative to control. The format is cell-based. Conditions: dose 1-2000 nM.

A further data set relates to NCI-H358. Briefly: Antiproliferative activity against human NCI-H358 cells harboring KRAS G12C mutant assessed as inhibition of cell proliferation incubated for 7 days by CellTiterGlo-3D proliferation assay. The format is functional, cell-based. The settings on record: NCI-H358, 168 h.
A further data set relates to PANC-1. The experiment in a line: Antiproliferative activity against human PANC-1 cells harboring KRAS G12D mutant assessed as inhibition of cell proliferation incubated for 7 days by CellTiterGlo-3D proliferation assay. The settings on record: PANC-1, 168 h. The format is functional, cell-based.
In the next data set the test system is NCI-H460. Briefly: Antiproliferative activity against human NCI-H460 cells harboring KRAS […] mutant assessed as inhibition of cell proliferation incubated for 7 days by CellTiterGlo-3D proliferation assay. The settings on record: time 7.0 day. The format is functional, cell-based.
Data set [5] addresses T2, von Hippel-Lindau disease tumor suppressor/Son of sevenless homolog 1 (Homo sapiens). The experiment in a line: PROTAC activity at VHL/SOS1 in human ASPC1 cells harboring KRAS G12D mutant assessed as induction of SOS1 degradation at 1 uM incubated for 2 to 4 hrs by Immunoblot analysis. In kind it is cell-based. Conditions: time 2-4 hrs.
Data set [6] has the same target. Briefly: PROTAC activity at VHL/SOS1 in human SW620 cells harboring KRAS G12V mutant assessed as induction of SOS1 degradation at 1 uM incubated for 8 hrs by Immunoblot analysis. The format is cell-based.
The next data set deals with ASPC1. The experiment in a line: Downregulation of ALKBH4 in human ASPC1 cells at 1 uM incubated for 6 hrs by quantitative proteomics analysis. In kind it is functional, cell-based.
Data set [7] in a line: Half-life in BALB/c mouse at 10 mg/kg, ip measured upto 24 hrs by LC-MS/MS analysis. The format is ADME, organism-based. Conditions: in vivo.
Data set [8] in a line: Acute toxicity in BALB/c mouse assessed as body weight loss at 12.5 to 100 mg/kg, ip administered once daily for 7 days. In kind it is organism-based. The settings on record: in vivo, 168 h, dose 12.5-100 mg/kg, time 7 day.
Data set [9] can be described thus: Toxicity in BALB/c nude mouse xenografted with human ASPC1 cells harboring KRAS G12D mutant assessed as body weight loss at 10 to 20 mg/kg, ip administered once daily for 3 weeks. The format is organism-based. Conditions: in vivo, 504 h, dose 10-20 mg/kg.
The target in data set [10] is T2, von Hippel-Lindau disease tumor suppressor/Son of sevenless homolog 1 (Homo sapiens). The experiment in a line: In vivo PROTAC activity at VHL/SOS1 in human ASPC1 cells harboring KRAS G12D mutant xenografted BALB/c nude mouse assessed as induction of SOS1 degradation administered intraperitoneally once daily for 3 weeks by Immunoblot analysis. The format is functional. The settings on record: dose 10-20 mg/kg, route ip.

Data set [11] has the same target. Briefly: In vivo PROTAC activity at VHL/SOS1 in human SW620 cells harboring KRAS G12V mutant xenografted BALB/c nude mouse assessed as induction of SOS1 degradation at 10 to 20 mg/kg, ip administered once daily for 2 weeks by Immunoblot analysis. In kind it is functional, organism-based. The settings on record: SW-620, dose 10-20 mg/kg.

Consider 1 compound from ChEMBL document CHEMBL5247656, “Discovery of a Potent, Cooperative, and Selective SOS1 PROTAC ZZ151 with In Vivo Antitumor Efficacy in KRAS-Mutant Cancers” (J Med Chem, 2023).

SMILES strings stand for the structures. Calls of active or inactive are those of the source.

T2 sequence (P40337 whole entry, looked up, one chain of several): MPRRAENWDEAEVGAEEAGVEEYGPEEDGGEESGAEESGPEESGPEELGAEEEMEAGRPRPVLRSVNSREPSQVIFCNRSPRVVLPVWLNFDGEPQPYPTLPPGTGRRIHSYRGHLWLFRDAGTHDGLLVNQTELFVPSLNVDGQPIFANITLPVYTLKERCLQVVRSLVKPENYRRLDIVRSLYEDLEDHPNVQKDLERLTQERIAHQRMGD
Chain of von Hippel-Lindau disease tumor suppressor/Son of sevenless homolog 1 (P40337 whole entry, looked up, stated change not applied, one chain of several): as the sequence (P40337 whole entry, looked up, one chain of several) above

A word on the Kd: it is the concentration at which binding is half-saturated. A word on the EC50: it is the concentration needed to bring the measured effect to its halfway point. By Emax is commonly meant the size of the effect at its maximum, as opposed to the concentration needed. For orientation: IC50 means the concentration that inhibits the measured activity by half. As a reminder, the half-life is the time needed for the level to fall by half in the phase considered. A low value points to rapid decline. For `COc1cc2nc(C)nc(N[C@H](C)c3cc(N)cc(C(F)(F)F)c3)c2cc1C1CCN(C(=O)CCCCCC(=O)N[C@H](C(=O)N2C[C@H](O)C[C@H]2C(=O)N[C@@H](C)c2ccc(-c3scnc3C)cc2)C(C)(C)C)CC1`, the inhibition result in the data set on CAL-62 and in the data set with NCI-H460 was “inactive” in each case. Moreover, in [1], the Kd amounted to 93 nM. Besides, the result in [2] was inactive. In addition, the 50% effective concentration (EC50) in data set [3] was 8.41 nM. The maximal response (Emax) in data set [4] is more than 95%. Further, the figures for the half-inhibitory concentration (IC50) with NCI-H358 and in the data set on PANC-1 were 12.9 nM and 13.8 nM, respectively. For the same compound, the outcome (in [5]; in data set [6]; in the data set with ASPC1; in data set [11]) was Active. For the same compound, the half-life in [7] is 9.69 h. The Activity result is “Non-Toxic” in data set [8], “Non-Toxic” in data set [9] and “Dose-Dependent Effect” in data set [10].
